In patent US8048896B2, “Methods for inhibiting and breaking AGE complex formation” (Cell Viable Corporation, priority 2005, dated 2011):

Experiments:
[1] = test system: AGE crosslinks in tail tendon collagen of old diabetic rats; test: Acid solubility of tail tendon collagen treated with AGE-breakers; format: biochemical, rat; details: FIG. 2; particularly at 1.0 and 10 mM concentrations
Protocol: (§1) The effects of these compounds on AGE crosslinks that form in vivo in tail tendon collagen of old diabetic rats were determined. Non-diabetic rats served as controls. P values were calculated using unpaired Student's t-test. The extent of AGE crosslinking of tail tendon collagen formed in vivo was assessed by acid insolubility (FIG. 2, * P<0.05 vs. non-diabetic control; ** P<0.05 vs. diabetic control) and fluorescence measurements of collagen treated with AGE-breakers after pepsin (FIG. 3; * P<0.05 vs. diabetic control) or papain digestion (FIG. 4; * P<0.05 vs. non-diabetic control; ** P<0.05 vs. diabetic control). In each of FIGS. 2-4, panel A is LR-20, panel B is LR-23, panel C is LR-99 and panel D is LR-102.

[2] = test system: AGE crosslinks in tail tendon collagen of old diabetic rats; test: Fluorescence of collagen treated with AGE-breakers after pepsin digestion; format: biochemical, rat; details: FIG. 3; particularly at 1.0 and 10 mM concentrations
Protocol: as §1

[3] = test system: AGE crosslinks in tail tendon collagen of old diabetic rats; test: Fluorescence of collagen treated with AGE-breakers after papain digestion; format: biochemical, rat; details: FIG. 4; particularly at 1.0 and 10 mM concentrations
Protocol: as §1

[4] = test system: AGE-derived protein crosslinks; details: in vitro and in vivo; cited from earlier work
[5] = target: AGE formed on glycated bovine serum albumin (Bos taurus, UniProt P02769); test: AGE-breaking ELISA on ribose-glycated bovine serum albumin; format: biochemical; details: FIG. 1; various concentrations, 48 hr at 37° C.; ELISA with polyclonal anti-AGE-RNAse antibodies
Sequence of AGE formed on glycated bovine serum albumin (P02769 25-607): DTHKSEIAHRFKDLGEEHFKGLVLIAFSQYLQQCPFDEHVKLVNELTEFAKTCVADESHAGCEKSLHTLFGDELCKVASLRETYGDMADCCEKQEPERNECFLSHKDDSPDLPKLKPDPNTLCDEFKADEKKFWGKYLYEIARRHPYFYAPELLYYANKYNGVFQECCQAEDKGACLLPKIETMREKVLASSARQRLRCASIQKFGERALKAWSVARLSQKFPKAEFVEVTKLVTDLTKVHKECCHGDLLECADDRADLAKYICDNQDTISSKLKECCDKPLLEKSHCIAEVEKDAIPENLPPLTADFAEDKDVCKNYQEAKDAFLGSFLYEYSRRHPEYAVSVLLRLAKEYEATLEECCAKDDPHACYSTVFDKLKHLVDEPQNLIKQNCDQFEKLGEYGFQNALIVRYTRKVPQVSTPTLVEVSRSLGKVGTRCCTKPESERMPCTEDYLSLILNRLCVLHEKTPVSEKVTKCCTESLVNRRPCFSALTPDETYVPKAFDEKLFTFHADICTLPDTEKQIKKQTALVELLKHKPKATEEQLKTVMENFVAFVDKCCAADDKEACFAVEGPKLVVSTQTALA
Protocol: Specifically, bovine serum albumin (10 mg/mL) was incubated with 0.5 M ribose in 0.4 M phosphate buffer, pH 7.5, containing 0.02% sodium azide for 24 hr at 37° C., followed by extensive dialysis for 24 hr at 4° C. to remove excess and reversibly bound ribose. AGE formation was then initiated by incubating 0.1 mg/mL (or 1:100 dilution in phosphate buffer) of the glycated protein at 37° C. Then the AGE formed were treated with various concentrations for the compounds for 48 hr at 37° C. Aliquots from each sample were taken and diluted with 0.1 M sodium carbonate buffer to 50 μg/mL. Then 50 μl of the diluted sample was added to wells of a 96-well polystyrene plate (1.0 μg/well) and incubated overnight at room temperature. The plates were washed thrice with PBS-0.05% Tween and blocked for 1 hr with Superblock blocking buffer. The amount of AGE in each treatment was then quantified by ELISA using polyclonal anti-AGE-RNAse antibodies. Percent AGE-breaking was calculated as: (100*(mean OD wells of control-mean OD wells with compound/mean OD wells control).

Structure (SMILES): CC(C)(Oc1ccc(NC(=O)c2ccc(Cl)cc2)cc1)C(=O)N[C@@H](CSSC[C@H](NC(=O)C(C)(C)Oc1ccc(NC(=O)c2ccc(Cl)cc2)cc1)C(=O)O)C(=O)O [LR-20, L-bis-[4-(4-chlorobenzamidophenoxyisobutyryl)cystine]]
- collagen solubility in weak acetic acid (acid insolubility) [1]: increased collagen solubility
- fluorescence associated with AGE crosslinks after pepsin digestion [2]: reduction of fluorescence
- fluorescence associated with AGE crosslinks after papain digestion [3]: reduction of fluorescence

Structure (SMILES): CC(C)(Oc1ccc(NC(=O)Nc2cc(Cl)cc(Cl)c2)cc1)C(=O)NC1(C(=O)O)CCCCC1 [LR-23, 4-(3,5-dichlorophenylureido)phenoxyisobutyryl-1-amidocyclohexane-1-carboxylic acid]
- collagen solubility in weak acetic acid (acid insolubility) [1]: increased collagen solubility
- fluorescence associated with AGE crosslinks after pepsin digestion [2]: reduction of fluorescence
- fluorescence associated with AGE crosslinks after papain digestion [3]: reduction of fluorescence

Structure (SMILES): CC(C)(Oc1ccc(NC(=O)Nc2cc(Cl)cc(Cl)c2)cc1)C(=O)Nc1ccc(C(=O)O)cc1 [LR-99, 4-(3,5-dichlorophenylureidophenoxyisobutyryl)-4 amino benzoic acid]
- collagen solubility in weak acetic acid (acid insolubility) [1]: increased collagen solubility
- fluorescence associated with AGE crosslinks after pepsin digestion [2]: reduction of fluorescence
- fluorescence associated with AGE crosslinks after papain digestion [3]: reduction of fluorescence

Structure (SMILES): CC(C)(Oc1ccc(N=Cc2ccc(C=Nc3ccc(OC(C)(C)C(=O)O)cc3)cc2)cc1)C(=O)O [LR-102, 1,4-benzene-bis-(4-methyleneaminophenoxyisobutyric acid)]
- collagen solubility in weak acetic acid (acid insolubility) [1]: increased collagen solubility
- fluorescence associated with AGE crosslinks after pepsin digestion [2]: reduction of fluorescence
- fluorescence associated with AGE crosslinks after papain digestion [3]: reduction of fluorescence

Structure (SMILES): O=C(C[n+]1ccsc1)c1ccccc1.[Br-] [N-phenacylthiazolium bromide (PTB), N-phenacylthiazolium bromide]
- cleavage of AGE-derived protein crosslinks [4]: selectively cleaves AGE-derived protein crosslinks in vitro and in vivo

Structure (SMILES): Cc1ncc(CO)c(CN)c1O [pyridoxamine]
- Percent AGE-breaking [5]: concentration dependent AGE-breaking properties
